Laboratory results reported in ChEMBL document CHEMBL5154929, “Optimization of the Natural Product Calothrixin A to Discover Novel Dual Topoisomerase I and II Inhibitors with Improved Anticancer Activity” (J Med Chem, 2022).
pIC50: −log10 of the molar value. Active and inactive are the calls of the source. The calls are words filed in the database; no cut-off is given here.

Tests used:
[1] = test system: A-375; test: (§1) In vivo induction of apoptosis in human A-375 cells xenografted in BALB/c nude mouse assessed as increase in C-caspase-3 level treated after 7 days of tumor implantation on right flank subcutaneously at 10 mg/kg, iv administered once per 2 days for 14 days by measuring TUNEL positive cells under a light microscope; format: functional, organism-based; conditions: time 14.0 day
[2] = test system: A-375; test: In vivo antitumor activity against human A-375 cells xenografted in BALB/c nude mouse assessed as shrinkage of tumor tissue treated after 7 days of tumor implantation on right flank subcutaneously at 10 mg/kg, iv administered once per 2 days for 14 days measured once every two days; format: functional, organism-based; conditions: time 14.0 day
[3] = test system: HCT-116; test: Antiproliferative activity against doxorubicin resistant human HCT-116 cells measured after 72 hrs by MTT assay; format: functional, cell-based; conditions: HCT-116, 72 h
[4] = Half life in Kunming mouse plasma at 10 mg/kg, iv administered as single dose measured after 5 to 360 mins by HPLC analysis; format: ADME, organism-based; conditions: time 5-360 min
[5] = Clearance in Kunming mouse plasma at 10 mg/kg, iv administered as single dose measured after 5 to 360 mins by HPLC analysis; format: ADME, organism-based; conditions: time 5-360 min
[6] = Toxicity in BALB/c nude mouse xenografted with human A-375 cells assessed as tolerability treated after 7 days of tumor implantation on right flank subcutaneously at 10 mg/kg, iv administered once per 2 days for 14 days measured once every two days; format: organism-based; conditions: in vivo, 336 h, time 14 day
[7] = Microsomal stability in mouse liver microsomes assessed as half life measured at 2 ug/ml upto 60 mins in presence of NADPH generating system and UGT incubation system by phase II metabolic stability kit method; format: ADME, Microsome; conditions: dose 2 µg/ml
[8] = Cytotoxicity against human HEK293T cells measured after 72 hrs by MTT assay; format: toxicity, cell-based, HEK-293T
[9] = test system: A-375; test: Cytotoxicity against human A-375 cells expressing high level of topoisomerase I/II measured after 72 hrs by MTT assay; format: functional, cell-based; conditions: A-375, 72 h
[10] = Volume of distribution in Kunming mouse plasma at 10 mg/kg, iv administered as single dose measured after 5 to 360 mins by HPLC analysis; format: ADME, organism-based; conditions: time 5-360 min
[11] = Tmax in Kunming mouse plasma at 10 mg/kg, iv administered as single dose measured after 5 to 360 mins by HPLC analysis; format: ADME, organism-based; conditions: time 5-360 min
[12] = test system: A-375; test: In vivo induction of apoptosis in human A-375 cells xenografted in BALB/c nude mouse treated after 7 days of tumor implantation on right flank subcutaneously at 10 mg/kg, iv administered once per 2 days for 14 days by measuring TUNEL positive cells under a light microscope; format: functional, organism-based; conditions: time 14.0 day
[13] = test system: MDA-MB-231; test: Cytotoxicity against human MDA-MB-231 cells expressing high level of topoisomerase I/II measured after 72 hrs by MTT assay; format: functional, cell-based; conditions: MDA-MB-231, 72 h
[14] = Microsomal stability in mouse liver microsomes assessed as clearance measured at 2 ug/ml upto 60 mins in presence of NADPH generating system and UGT incubation system by phase II metabolic stability kit method; format: ADME, Microsome; conditions: dose 2 µg/ml, read-out: CLH
[15] = test system: A-375; test: In vivo antitumor activity against human A-375 cells xenografted in BALB/c nude mouse assessed as decrease in tumor weight treated after 7 days of tumor implantation on right flank subcutaneously at 10 mg/kg, iv administered once per 2 days for 14 days measured once every two days; format: functional, organism-based; conditions: time 14.0 day
[16] = test system: A-375; test: Induction of cell cycle arrest in human A-375 cells assessed as accumulation of cells at G2 phase at 80 nM incubated for 24 hrs by PI based flow cytometric analysis (RVB = 20.34%); format: functional
[17] = Selectivity index, ratio of IC50 for human L02 cells to IC50 for human A-375 cells; format: toxicity; conditions: L02 cells and A-375 cells, read-out: Ratio IC50
[18] = test system: A-375; test: Induction of cell cycle arrest in human A-375 cells assessed as accumulation of cells at S phase at 80 nM incubated for 24 hrs by PI based flow cytometric analysis (RVB = 26.73%); format: functional
[19] = Cmax in Kunming mouse plasma at 10 mg/kg, iv administered as single dose measured after 5 to 360 mins by HPLC analysis; format: ADME, organism-based; design: dose 10 mg/kg, time upper 360 min, time lower 5 min, route iv
[20] = test system: A-375; test: as §1, with “[…]” for “C-caspase-3”; format: functional, organism-based; conditions: time 14.0 day
[21] = test system: A549; test: Cytotoxicity against human A549 cells expressing high level of topoisomerase I/II measured after 72 hrs by MTT assay; format: functional, cell-based; conditions: A549, 72 h
[22] = Metabolic stability in mouse plasma upto 5 hrs by HPLC-UV analysis; format: ADME, cell-free
[23] = Toxicity in BALB/c nude mouse xenografted with human A-375 cells assessed as body weight loss treated after 7 days of tumor implantation on right flank subcutaneously at 10 mg/kg, iv administered once per 2 days for 14 days measured once every two days; format: organism-based; conditions: in vivo, 336 h, time 14 day
[24] = test system: A-375; test: Induction of cell cycle arrest in human A-375 cells assessed as accumulation of cells at G1 phase at 80 nM incubated for 24 hrs by PI based flow cytometric analysis (RVB = 52.94%); format: functional
[25] = test system: SH-SY5Y; test: Cytotoxicity against human SH-SY5Y cells expressing low level of topoisomerase I/II measured after 72 hrs by MTT assay; format: functional, cell-based
[26] = test system: HCT-116; test: Antiproliferative activity against doxorubicin sensitive human HCT-116 cells measured after 72 hrs by MTT assay; format: functional, cell-based; conditions: HCT-116, 72 h
[27] = AUC in Kunming mouse plasma at 10 mg/kg, iv administered as single dose measured after 5 to 360 mins by HPLC analysis; format: ADME, organism-based; design: time upper 360 min, time lower 5 min, dose 10 mg/kg, route iv
[28] = test system: MCF7; test: Cytotoxicity against human MCF7 cells expressing high level of topoisomerase I/II measured after 72 hrs by MTT assay; format: functional, cell-based; conditions: MCF7, 72 h
[29] = test system: HCT-116; test: Cytotoxicity against human HCT-116 cells expressing high level of topoisomerase I/II measured after 72 hrs by MTT assay; format: functional, cell-based; conditions: HCT-116, 72 h
[30] = Cytotoxicity against human L02 cells measured after 72 hrs by MTT assay; format: toxicity, cell-based

pIC50 [3]: 5.45 | half-life [4]: 45 min | clearance [5]: 7 mL/min/kg | half-life at 2 ug/ml [7]: 21 min | Vd [10]: 0.432 L/kg | Tmax [11]: 5 min | microsomal CLint at 2 ug/ml [14]: 66 µL/min/mg | Cmax [19]: 17700 ng/mL | Stability [22]: Stable | pIC50 [26]: 6.43 | AUC [27]: 6830 ng·h/mL
SMILES: COc1cc([C@@H]2c3cc4c(cc3[C@@H](O[C@@H]3O[C@@H]5CO[C@@H](C)O[C@H]5[C@H](O)[C@H]3O)[C@H]3COC(=O)[C@H]23)OCO4)cc(OC)c1O [ETOPOSIDE]
Activity [1]: Active | Activity [2]: Active | Activity [6]: Toxic | IC50 at 72 h [8]: 1390 nM | pIC50 [9]: 6.55 | Activity [12]: Active | pIC50 [13]: 6.29 | Activity [15]: Active | Activity [16]: 12.07% | selectivity ratio [17]: < 5 | Activity [18]: 31.79% | Activity [20]: Active | pIC50 [21]: 6.22 | Activity [23]: Toxic | Activity [24]: 56.15% | pIC50 [25]: 6.05 | pIC50 [28]: 6.10 | pIC50 [29]: 6.42 | IC50 at 72 h [30]: 1220 nM
